Assays:
Format in all cases: in vivo
[1] = tested on: Abutilon theophrasti; assay: Pre-emergence herbicidal action against ABUTH; conditions: visual score after 3 weeks vs untreated controls
Method in brief: (§1)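 Herbicidal effect was assessed 3 weeks after treatment by visual comparison with untreated controls, 100% denoting dead plants. Aqueous WP or EC preparations had been applied at 600 to 800 l/ha with 0.2% wetting agent to the soil covering freshly sown seeds.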

[2] = tested on: Alopecurus myosuroides; assay: Pre-emergence herbicidal action against ALOMY; conditions: 80 g/ha; visual score after 3 weeks vs untreated controls
Method in brief: as §1

[3] = tested on: Amaranthus retroflexus; assay: Pre-emergence herbicidal action against AMARE; conditions: visual score after 3 weeks vs untreated controls
Method in brief: as §1

[4] = tested on: Avena fatua; assay: Pre-emergence herbicidal action against AVEFA; conditions: 80 g/ha; visual score after 3 weeks vs untreated controls
Method in brief: as §1

[5] = tested on: Echinochloa crus-galli; assay: Pre-emergence herbicidal action against ECHCG; conditions: 80 g/ha; visual score after 3 weeks vs untreated controls
Method in brief: as §1

[6] = tested on: Matricaria inodora; assay: Pre-emergence herbicidal action against MATIN; conditions: visual score after 3 weeks vs untreated controls
Method in brief: as §1

[7] = tested on: Digitaria sanguinalis; assay: Pre-emergence herbicidal action against DIGSA
Method in brief: as §1

[8] = tested on: Setaria viridis; assay: Pre-emergence herbicidal action against SETVI; conditions: 80 g/ha
Method in brief: as §1

[9] = tested on: Viola tricolor; assay: Pre-emergence herbicidal action against VIOTR
Method in brief: as §1

[10] = tested on: Abutilon theophrasti; assay: Post-emergence herbicidal action against ABUTH
Method in brief: (§2)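 Post-emergence greenhouse test; one-leaf stage, 2–3 wk post-sowing, sandy loam. Foliar spray of WP/EC in water, 600–800 l/ha, +0.2% wetting agent. Visual % action at ~3 wk vs untreated (100% = plants dead).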

[11] = tested on: Amaranthus retroflexus; assay: Post-emergence herbicidal action against AMARE; conditions: visual assessment about 3 weeks after treatment
Method in brief: as §2

[12] = tested on: Echinochloa crus-galli; assay: Post-emergence herbicidal action against ECHCG; conditions: 20 g/ha, visual assessment about 3 weeks after treatment
Method in brief: as §2

[13] = tested on: Digitaria sanguinalis; assay: Post-emergence herbicidal action against DIGSA
Description: Seeds of monocotyledonous and dicotyledonous weed and crop plants are laid out in sandy loam soil in wood-fiber pots, covered with soil and cultivated in a greenhouse under good growth conditions. 2 to 3 weeks after sowing, the test plants are treated at the one-leaf stage. The compounds of the invention, formulated in the form of wettable powders (WP) or as emulsion concentrates (EC), are then sprayed onto the green parts of the plants in the form of an aqueous suspension or emulsion at a water application rate equivalent to 600 to 800 l/ha, with addition of 0.2% wetting agent. After the test plants have been left to stand in the greenhouse under optimal growth conditions for about 3 weeks, the action of the preparations is assessed visually in comparison to untreated controls (herbicidal action in percent (%): 100% activity=the plants have died, 0% activity=like control plants). […] The tables below illustrate, in an illustrative manner, the post-emergence herbicidal action of the compounds of the invention, the herbicidal activity being stated in percent.

[14] = tested on: Setaria viridis; assay: Post-emergence herbicidal action against SETVI; conditions: visual assessment about 3 weeks after treatment
Method in brief: as §2

[15] = tested on: Veronica persica; assay: Post-emergence herbicidal action against VERPE; conditions: 20 g/ha, visual assessment about 3 weeks after treatment
Method in brief: as §2

[16] = tested on: Viola tricolor; assay: Post-emergence herbicidal action against VIOTR; conditions: 20 g/ha
Method in brief: as §2

[17] = tested on: Alopecurus myosuroides; assay: Post-emergence herbicidal action against ALOMY
Method in brief: as §2

[18] = tested on: Avena fatua; assay: Post-emergence herbicidal action against AVEFA; conditions: 20 g/ha, visual assessment about 3 weeks after treatment
Method in brief: as §2

[19] = tested on: Matricaria inodora; assay: Post-emergence herbicidal action against MATIN; conditions: visual assessment about 3 weeks after treatment
Method in brief: as §2

[20] = tested on: Lolium rigidum; assay: Pre-emergence herbicidal action against LOLRI; conditions: 80 g/ha
From the text: Seeds of monocotyledonous and dicotyledonous weed plants and crop plants are laid out in sandy loam soil in wood-fiber pots and covered with soil. The compounds of the invention, formulated in the form of wettable powders (WP) or as emulsion concentrates (EC), are then applied to the surface of the covering soil in the form of an aqueous suspension or emulsion at a water application rate equivalent to 600 to 800 l/ha, with addition of 0.2% wetting agent. After the treatment, the pots are placed in a greenhouse and kept under good growth conditions for the trial plants. The damage to the test plants is scored visually after a test period of 3 weeks by comparison with untreated controls (herbicidal activity in percent (%): 100% activity=the plants have died, 0% activity=like control plants). […] The tables below illustrate, in an illustrative manner, the post-emergence herbicidal action of the compounds of the invention, the herbicidal activity being stated in percent.

[21] = tested on: Veronica persica; assay: Pre-emergence herbicidal action against VERPE; conditions: 80 g/ha
Method in brief: as §1

[22] = tested on: Pharbitis purpurea; assay: Post-emergence herbicidal action against PHBPU; conditions: visual assessment about 3 weeks after treatment
Method in brief: as §2

[23] = tested on: Polygonum convolvulus; assay: Pre-emergence herbicidal action against POLCO; conditions: 80 g/ha
Method in brief: as §1

Row | Compound | Pre-emergence action against ABUTH ([1]; 20 g/ha) [%] | Pre-emergence action against ABUTH ([1]; 80 g/ha) [%] | Pre-emergence action against ALOMY [2] [%] | Pre-emergence action against AMARE ([3]; 20 g/ha) [%] | Pre-emergence action against AMARE ([3]; 80 g/ha) [%] | Pre-emergence action against AVEFA [4] [%] | Pre-emergence action against ECHCG [5] [%] | Pre-emergence action against MATIN ([6]; 80 g/ha) [%] | Pre-emergence action against SETVI [8] [%] | Pre-emergence action against VIOTR ([9]; 80 g/ha) [%] | Post-emergence action against ABUTH ([10]; 5 g/ha) [%] | Post-emergence action against ABUTH ([10]; 20 g/ha) [%] | Post-emergence action against AMARE in % ([11]; 20 g/ha) [%] | Post-emergence action against DIGSA in % ([13]; 5 g/ha) [%] | Post-emergence action against DIGSA in % ([13]; 20 g/ha) [%] | Post-emergence action against SETVI in % ([14]; 5 g/ha) [%] | Post-emergence action against SETVI in % ([14]; 20 g/ha) [%] | Post-emergence action against VIOTR in % [16] [%] | Post-emergence action against ALOMY ([17]; 20 g/ha) [%] | Post-emergence action against AMARE in % ([11]; 5 g/ha) [%] | further results
1 | Cc1c(C(=O)Nc2nnnn2C)ccc(C(F)(F)F)c1C(=O)N(C)C [Example 1-19] | 90 | 100 | 80 | 100 | 100 | 80 | 90 | 90 | 100 | 100 | 90 | 100 | 100 | 90 | 90 | 100 | 100 | 80 |  |  | Pre-emergence action against DIGSA ([7]; 80 g/ha): 100%; Post-emergence action against ECHCG in % [12]: 90%; Post-emergence action against VERPE in % [15]: 80%
2 | CN(C(=O)c1c(C(F)(F)F)ccc(C(=O)Nc2nnnn2C)c1Cl)C1CC1 [Example 1-125] | 100 | 100 | 100 | 100 | 100 | 80 | 90 | 100 | 100 | 100 |  |  | 90 |  | 100 |  | 80 | 80 | 90 | 80 | Pre-emergence action against DIGSA ([7]; 20 g/ha): 100%; Pre-emergence action against DIGSA ([7]; 80 g/ha): 100%; Pre-emergence action against VIOTR ([9]; 20 g/ha): 100%; Post-emergence action against ALOMY ([17]; 5 g/ha): 80%; Post-emergence action against AVEFA in % [18]: 80%; Post-emergence action against MATIN in % ([19]; 20 g/ha): 80%; Post-emergence action against VERPE in % [15]: 90%
3 | CCN(C)C(=O)c1c(C(F)F)ccc(C(=O)Nc2nnnn2C)c1Cl [Example 1-155] | 100 | 100 | 90 | 100 | 100 | 90 | 100 | 100 | 100 | 100 | 90 | 90 | 100 | 80 | 80 | 80 | 90 | 80 | 90 | 100 | Pre-emergence action against MATIN ([6]; 20 g/ha): 90%; Pre-emergence action against LOLRI [20]: 80%; Pre-emergence action against VERPE [21]: 90%; Post-emergence action against ALOMY ([17]; 5 g/ha): 80%; Post-emergence action against AVEFA in % [18]: 80%; Post-emergence action against ECHCG in % [12]: 90%; Post-emergence action against MATIN in % ([19]; 20 g/ha): 90%; Post-emergence action against PHBPU in % ([22]; 5 g/ha): 80%; Post-emergence action against PHBPU in % ([22]; 20 g/ha): 80%; Post-emergence action against VERPE in % [15]: 80%
4 | CCN(C)C(=O)c1c(C(F)F)ccc(C(=O)Nc2nnnn2CC)c1Cl [Example 2-155] | 100 | 100 | 90 | 100 | 100 | 90 | 100 | 100 | 100 | 100 | 80 | 90 | 100 | 80 | 80 | 80 | 100 | 80 | 90 | 100 | Pre-emergence action against MATIN ([6]; 20 g/ha): 80%; Pre-emergence action against LOLRI [20]: 90%; Pre-emergence action against VERPE [21]: 90%; Post-emergence action against MATIN in % ([19]; 5 g/ha): 80%; Post-emergence action against MATIN in % ([19]; 20 g/ha): 90%; Post-emergence action against PHBPU in % ([22]; 5 g/ha): 80%; Post-emergence action against PHBPU in % ([22]; 20 g/ha): 80%
5 | CCN(CC)C(=O)c1c(C(F)F)ccc(C(=O)Nc2nnnn2CC)c1Cl [Example 2-166] | 100 | 100 | 90 | 100 | 100 | 80 | 90 | 100 | 100 | 100 | 80 | 90 | 100 | 80 | 90 | 90 | 90 | 80 | 90 | 100 | Pre-emergence action against MATIN ([6]; 20 g/ha): 80%; Pre-emergence action against POLCO [23]: 80%; Pre-emergence action against VERPE [21]: 100%; Post-emergence action against AVEFA in % [18]: 80%; Post-emergence action against ECHCG in % [12]: 80%; Post-emergence action against MATIN in % ([19]; 5 g/ha): 80%; Post-emergence action against MATIN in % ([19]; 20 g/ha): 80%; Post-emergence action against PHBPU in % ([22]; 5 g/ha): 80%; Post-emergence action against PHBPU in % ([22]; 20 g/ha): 90%

Source: US12599136B2, “Substituted isophthalic acid diamides and their use as herbicides” (Bayer Aktiengesellschaft, priority 2020, dated 2026)
